The values below come from patent publication US12612391B2, “Cromolyn derivatives and uses thereof” (The General Hospital Corporation, priority 2020, dated 2026).

The subject of the assay is BV2-CD33^WT cells. The assay can be described thus: Aβ42 uptake in microglial BV2-CD33^WT cells (Aβ42-specific ELISA of cell lysates). The assay is classed as cell-based. The note with it: 100 μM; BV2-CD33 activated microglial cells; 3 hours pre-treatment, then 2 hours with Aβ42 peptide; vs DMSO control; FIG. 2. Here is the method:
FIG. 2 is a plot showing Aβ42 uptake in microglial BV2-CD33^WT cells treated with DMSO as control or cromolyn derivatives (C1, C3-8) at different concentrations for 3 hours. Afterwards, cells were incubated with DMSO or cromolyn derivatives in the presence of the Aβ42 peptide for additional 2 hours. Cell lysates were analyzed for intracellular levels of Aβ42 using an Aβ42-specific ELISA kit.
For orientation: An ELISA detects its analyte on a solid surface through an enzyme-linked reagent.

For the compound `CC(=O)OCc1cc(=O)c2c(OCC(COc3cccc4oc(COC(C)=O)cc(=O)c34)OC(C)=O)cccc2o1` [Compound C7, Ac-Triol- Cromolyn], the “microglial uptake of Aβ42” value is “positive impact”.
